Assay results from patent US8216786B2, “Genetic polymorphisms associated with cardiovascular diseases, methods of detection and uses thereof” (Celera Corporation, priority 2008, dated 2012).

Test system: individuals who have previously had an MI
Test: CARE trial: effect of pravastatin vs placebo on coronary events (endpt1, rmi) by SNP genotype subgroup
Assay type: in vivo, human
Description: In Tables 21-22, the column labeled “Endpoint” indicates whether the endpoint that was analyzed was the primary endpoint of the CARE study (a composite endpoint of fatal coronary event or nonfatal MI, and identified as “endpt1”) or a composite endpoint of confirmed fatal or nonfatal MI (identified as “rmi”). […] As used herein, the term “benefit” (with respect to a preventive or therapeutic drug treatment) is defined as achieving a reduced risk for a disease that the drug is intended to treat or prevent (e.g., CVD such as CHD, particularly MI, or hypertension) by administering the drug treatment, compared with the risk for the disease in the absence of receiving the drug treatment (or receiving a placebo in lieu of the drug treatment) for the same genotype. […] J. […] (1996) New England Journal of Medicine 335: 1001-1009. […] A well-documented MI was one of the enrollment criteria for entry into the CARE study. Patients were enrolled in the CARE trial from 80 participating study centers. […] For the study of CARE described in this Example and shown in Tables 21-22, two endpoints were investigated: the primary endpoint of CARE (a composite endpoint of fatal coronary event or nonfatal MI, and identified as “endpt1” in the Endpoint column of Tables 21-22) and a composite endpoint of confirmed fatal or nonfatal MI (identified as “rmi” in the Endpoint column of Tables 21-22). […] HR stands for Hazard Ratio, which is a concept similar to Odds Ratio (OR). The HR in event-free survival analysis is the effect of an explanatory variable on the hazard or risk of an event. […] In Table 21, p-interaction values were calculated. An interaction (or effect modification) is formed when a third variable modifies the relation between an exposure and outcome. […] Genotype and drug interaction is present when the effect of statins (incidence rate of disease in statin-treated group, as compared to placebo) differs in patients with different genotypes.

[1] = endpt1, hCV370782 rs9841174 SERPINI2, CC
[2] = endpt1, hCV370782 rs9841174 SERPINI2, CT + TT
[3] = endpt1, hCV795442 rs375947 IL12RB1, AA
[4] = endpt1, hCV795442 rs375947 IL12RB1, GA + GG
[5] = endpt1, hCV818008 rs5918 ITGB3, CC
[6] = endpt1, hCV818008 rs5918 ITGB3, CT + TT
[7] = endpt1, hCV904973 rs7412 APOE, CC
[8] = endpt1, hCV904973 rs7412 APOE, TC + TT
[9] = endpt1, hCV997884 rs512770, AG + GG
[10] = endpt1, hCV2553030 rs11230562 CD6, TC + CC
[11] = endpt1, hCV2553030 rs11230562 CD6, TT
[12] = endpt1, hCV2769554 rs1805010 IL4R, GA + AA
[13] = endpt1, hCV2769554 rs1805010 IL4R, GG
[14] = endpt1, hCV2822674 rs1801222 CUBN, AA
[15] = endpt1, hCV2822674 rs1801222 CUBN, AG + GG
[16] = endpt1, hCV2983036 rs9527025 KL, CC
[17] = endpt1, hCV2983036 rs9527025 KL, CG
[18] = endpt1, hCV2983036 rs9527025 KL, GG
[19] = endpt1, hCV2992252 rs6037651 SIGLEC1, CC
[20] = endpt1, hCV2992252 rs6037651 SIGLEC1, CT + TT
[21] = endpt1, hCV3135085 rs10795446 CUBN, GG
[22] = endpt1, hCV3187716 rs5186 AGTR1, CA + AA
[23] = endpt1, hCV3187716 rs5186 AGTR1, CC
[24] = endpt1, hCV3215409 rs267561 ITGA9, GA + AA
[25] = endpt1, hCV3215409 rs267561 ITGA9, GG
[26] = endpt1, hCV3219460 rs1799983 NOS3, TG + GG
[27] = endpt1, hCV3219460 rs1799983 NOS3, TT
[28] = endpt1, hCV7514870 rs1041981 LTA, AA
[29] = endpt1, hCV7514870 rs1041981 LTA, AC + CC
[30] = endpt1, hCV8705506 rs5516 KLK1, CG + CC
[31] = endpt1, hCV8705506 rs5516 KLK1, GG
[32] = endpt1, hCV8708473 rs1800469 TMEM91, AA
[33] = endpt1, hCV8708473 rs1800469 TMEM91, AG + GG
[34] = endpt1, hCV8708474 rs1800468 MGC4093, CC
[35] = endpt1, hCV8708474 rs1800468 MGC4093, TC + TT
[36] = endpt1, hCV8709053 rs4880 SOD2, GA + AA
[37] = endpt1, hCV8709053 rs4880 SOD2, GG
[38] = endpt1, hCV8718197 rs1050998 CXCL16, AA
[39] = endpt1, hCV8718197 rs1050998 CXCL16, GA + GG
[40] = endpt1, hCV8726337 rs5498 ICAM1, AA
[41] = endpt1, hCV8726337 rs5498 ICAM1, GA + GG
[42] = endpt1, hCV8737990 rs419598 IL1RN, CC
[43] = endpt1, hCV8737990 rs419598 IL1RN, CT + TT
[44] = endpt1, hCV8784787 rs688976, AA
[45] = endpt1, hCV8784787 rs688976, AC + CC
[46] = endpt1, hCV8804621 rs1390938 SLC18A1, AA
[47] = endpt1, hCV8804621 rs1390938 SLC18A1, AG + GG
[48] = endpt1, hCV8848630 rs7192 HLA-DRA, GG
[49] = endpt1, hCV8848630 rs7192 HLA-DRA, TG + TT
[50] = endpt1, hCV8851047 rs45614833 HLA-DPA1, CC

## CC[C@H](C)C(=O)O[C@H]1C[C@H](O)C=C2C=C[C@H](C)[C@H](CC[C@@H](O)C[C@@H](O)CC(=O)O)[C@H]21 [pravastatin]
CARE, SNP hCV11170747, genotype strata in row order
  Hazard ratio, Pravastatin vs placebo: 0.87
[1]
  EVENTS (Pravastatin arm): 20
  NONEVENT (Pravastatin arm): 194
[2]
  EVENTS (Pravastatin arm): 113
  NONEVENT (Pravastatin arm): 1097
[3]
  EVENTS (Pravastatin arm): 52
  NONEVENT (Pravastatin arm): 599
[4]
  EVENTS (Pravastatin arm): 80
  NONEVENT (Pravastatin arm): 691
[5]
  EVENTS (Pravastatin arm): 7
  NONEVENT (Pravastatin arm): 26
[6]
  EVENTS (Pravastatin arm): 126
  NONEVENT (Pravastatin arm): 1266
[7]
  EVENTS (Pravastatin arm): 114
  NONEVENT (Pravastatin arm): 1149
[8]
  EVENTS (Pravastatin arm): 19
  NONEVENT (Pravastatin arm): 141
endpt1, hCV997884 rs512770, AA
  EVENTS (Pravastatin arm): 5
  NONEVENT (Pravastatin arm): 42
[9]
  EVENTS (Pravastatin arm): 126
  NONEVENT (Pravastatin arm): 1241
[10]
  EVENTS (Pravastatin arm): 129
  NONEVENT (Pravastatin arm): 1179
[11]
  EVENTS (Pravastatin arm): 3
  NONEVENT (Pravastatin arm): 107
[12]
  EVENTS (Pravastatin arm): 101
  NONEVENT (Pravastatin arm): 1001
[13]
  EVENTS (Pravastatin arm): 32
  NONEVENT (Pravastatin arm): 287
[14]
  EVENTS (Pravastatin arm): 10
  NONEVENT (Pravastatin arm): 150
[15]
  EVENTS (Pravastatin arm): 123
  NONEVENT (Pravastatin arm): 1140
[16]
  EVENTS (Pravastatin arm): 4
  NONEVENT (Pravastatin arm): 22
[17]
  EVENTS (Pravastatin arm): 32
  NONEVENT (Pravastatin arm): 363
[18]
  EVENTS (Pravastatin arm): 97
  NONEVENT (Pravastatin arm): 906
[19]
  EVENTS (Pravastatin arm): 8
  NONEVENT (Pravastatin arm): 196
[20]
  EVENTS (Pravastatin arm): 124
  NONEVENT (Pravastatin arm): 1089
[21]
  EVENTS (Pravastatin arm): 10
  NONEVENT (Pravastatin arm): 147
[22]
  EVENTS (Pravastatin arm): 128
  NONEVENT (Pravastatin arm): 1176
[23]
  EVENTS (Pravastatin arm): 5
  NONEVENT (Pravastatin arm): 112
[24]
  EVENTS (Pravastatin arm): 118
  NONEVENT (Pravastatin arm): 1057
[25]
  EVENTS (Pravastatin arm): 15
  NONEVENT (Pravastatin arm): 235
[26]
  EVENTS (Pravastatin arm): 124
  NONEVENT (Pravastatin arm): 1114
[27]
  EVENTS (Pravastatin arm): 9
  NONEVENT (Pravastatin arm): 177
[28]
  EVENTS (Pravastatin arm): 12
  NONEVENT (Pravastatin arm): 172
[29]
  EVENTS (Pravastatin arm): 121
  NONEVENT (Pravastatin arm): 1118
[30]
  EVENTS (Pravastatin arm): 66
  NONEVENT (Pravastatin arm): 749
[31]
  EVENTS (Pravastatin arm): 67
  NONEVENT (Pravastatin arm): 543
[32]
  EVENTS (Pravastatin arm): 9
  NONEVENT (Pravastatin arm): 139
[33]
  EVENTS (Pravastatin arm): 124
  NONEVENT (Pravastatin arm): 1153
[34]
  EVENTS (Pravastatin arm): 103
  NONEVENT (Pravastatin arm): 1068
[35]
  EVENTS (Pravastatin arm): 30
  NONEVENT (Pravastatin arm): 212
[36]
  EVENTS (Pravastatin arm): 105
  NONEVENT (Pravastatin arm): 954
[37]
  EVENTS (Pravastatin arm): 28
  NONEVENT (Pravastatin arm): 335
[38]
  EVENTS (Pravastatin arm): 33
  NONEVENT (Pravastatin arm): 409
[39]
  EVENTS (Pravastatin arm): 98
  NONEVENT (Pravastatin arm): 879
[40]
  EVENTS (Pravastatin arm): 31
  NONEVENT (Pravastatin arm): 430
[41]
  EVENTS (Pravastatin arm): 102
  NONEVENT (Pravastatin arm): 857
[42]
  EVENTS (Pravastatin arm): 15
  NONEVENT (Pravastatin arm): 96
[43]
  EVENTS (Pravastatin arm): 117
  NONEVENT (Pravastatin arm): 1193
[44]
  EVENTS (Pravastatin arm): 6
  NONEVENT (Pravastatin arm): 57
[45]
  EVENTS (Pravastatin arm): 126
  NONEVENT (Pravastatin arm): 1234
[46]
  EVENTS (Pravastatin arm): 8
  NONEVENT (Pravastatin arm): 69
[47]
  EVENTS (Pravastatin arm): 125
  NONEVENT (Pravastatin arm): 1218
[48]
  EVENTS (Pravastatin arm): 59
  NONEVENT (Pravastatin arm): 485
[49]
  EVENTS (Pravastatin arm): 74
  NONEVENT (Pravastatin arm): 802
[50]
  EVENTS (Pravastatin arm): 7
  NONEVENT (Pravastatin arm): 32
endpt1, hCV8851047 rs45614833 HLA-DPA1, CT + TT
  EVENTS (Pravastatin arm): 126
